# ChEMBL document CHEMBL5252638, “Novel triphenylphosphonium amphiphilic conjugates of glycerolipid type: synthesis, cytotoxic and antibacterial activity, and targeted cancer cell delivery” (RSC Med Chem, 2023)
# Tests used:
# [1] = test system: M-HeLa; assay: Cytotoxicity against human HelaM cells assessed as number of viable cells measured after 48 hrs by MTT based colorimetric assay; type: functional, cell-based
# [2] = test system: HuTu80; assay: Cytotoxicity against human HuTu80 cells assessed as number of viable cells measured after 48 hrs by MTT based colorimetric assay; type: functional, cell-based; settings: HuTu80, 48 h
# [3] = test system: PANC-1; assay: Cytotoxicity against human PANC-1 cells assessed as number of viable cells measured after 48 hrs by MTT based colorimetric assay; type: functional, cell-based; settings: PANC-1, 48 h
# [4] = test system: A549; assay: Cytotoxicity against human A549 cells assessed as number of viable cells measured after 48 hrs by MTT based colorimetric assay; type: functional, cell-based; settings: A549, 48 h
# [5] = test system: PC-3; assay: Cytotoxicity against human PC-3 cells assessed as number of viable cells measured after 48 hrs by MTT based colorimetric assay; type: functional, cell-based; settings: PC-3, 48 h
# [6] = test system: SK-OV-3; assay: Cytotoxicity against human SK-OV-3 cells assessed as number of viable cells measured after 48 hrs by MTT based colorimetric assay; type: functional, cell-based; settings: SK-OV-3, 48 h
# [7] = Cytotoxicity against human WI-38 cells assessed as number of viable cells measured after 48 hrs by MTT based colorimetric assay; type: toxicity, cell-based
# [8] = Cytotoxicity against human Chang liver cells assessed as number of viable cells measured after 48 hrs by MTT based colorimetric assay; type: toxicity, cell-based
# [9] = test system: MCF7; assay: Cytotoxicity against human MCF7 cells assessed as number of viable cells measured after 48 hrs by MTT based colorimetric assay; type: functional, cell-based; settings: MCF7, 48 h
# [10] = test system: T98G; assay: Cytotoxicity against human T98G cells assessed as number of viable cells measured after 48 hrs by MTT based colorimetric assay; type: functional, cell-based
# [11] = test system: HepG2; assay: Cytotoxicity against human HepG2 cells assessed as number of viable cells measured after 48 hrs by MTT based colorimetric assay; type: functional, cell-based; settings: HepG2, 48 h
# [12] = test system: DU-145; assay: Cytotoxicity against human DU-145 cells assessed as number of viable cells measured after 48 hrs by MTT based colorimetric assay; type: functional, cell-based; settings: DU-145, 48 h
# [13] = species on record: Homo sapiens; assay: Selectivity index, ratio of IC50 for human WI-38 cells to IC50 for human SK-OV-3 cells
# [14] = species on record: Homo sapiens; assay: Selectivity index, ratio of IC50 for human WI-38 cells to IC50 for human HelaM cells
# [15] = Selectivity index, ratio of IC50 for human WI-38 cells to IC50 for human MCF7 cells; type: toxicity; settings: WI-38 cells and MCF7 cells, read-out: Ratio IC50
# [16] = species on record: Homo sapiens; assay: Selectivity index, ratio of IC50 for human WI-38 cells to IC50 for human HuTu80 cells
# [17] = species on record: Homo sapiens; assay: Selectivity index, ratio of IC50 for human WI-38 cells to IC50 for human PANC-1 cells
# [18] = Selectivity index, ratio of IC50 for human WI-38 cells to IC50 for human PC-3 cells; type: toxicity; settings: WI-38 cells and PC-3 cells, read-out: Ratio IC50
# [19] = species on record: Homo sapiens; assay: Selectivity index, ratio of IC50 for human Chang liver cells to IC50 for human DU-145 cells
# [20] = test system: Staphylococcus aureus; assay: Antimicrobial activity against Staphylococcus aureus ATCC 6538 P FDA 209P by serial microdilution method; type: functional
# [21] = test system: Bacillus cereus; assay: Antimicrobial activity against Bacillus cereus ATCC 10702 NCTC 8035 by serial microdilution method; type: functional
# [22] = test system: Escherichia coli; assay: Antimicrobial activity against Escherichia coli ATCC 25922 by serial microdilution method; type: functional
# [23] = test system: Staphylococcus aureus; assay: Bactericidal against Staphylococcus aureus ATCC 6538 P FDA 209P by serial microdilution method; type: functional
# [24] = test system: Enterococcus faecalis; assay: Bactericidal activity against Enterococcus faecalis ATCC 29212 by serial microdilution method; type: functional
# [25] = test system: Escherichia coli; assay: Bactericidal activity against Escherichia coli ATCC 25922 by serial microdilution method; type: functional
# [26] = test system: Pseudomonas aeruginosa; assay: Antimicrobial activity against Pseudomonas aeruginosa ATCC 9027 by serial microdilution method; type: functional
# [27] = test system: Enterococcus faecalis; assay: Antimicrobial activity against Enterococcus faecalis ATCC 29212 by serial microdilution method; type: functional
# [28] = test system: Bacillus cereus; assay: Bactericidal activity against Bacillus cereus ATCC 10702 NCTC 8035 by serial microdilution method; type: functional
# [29] = test system: Pseudomonas aeruginosa; assay: Bactericidal against Pseudomonas aeruginosa ATCC 9027 by serial microdilution method; type: functional
# [30] = test system: HuTu80; assay: Induction of apoptosis in human HuTu80 cells assessed as viable cells at 5 uM incubated for 48 hrs by annexin V FITC/propidium iodide staining based flow cytometry analysis (reference value: 93.71%); type: functional; settings: read-out: Activity
# [31] = test system: HuTu80; assay: Induction of apoptosis in human HuTu80 cells assessed as viable cells at 10 uM incubated for 48 hrs by annexin V FITC/propidium iodide staining based flow cytometry analysis (reference value: 93.71%); type: functional; settings: read-out: Activity
# [32] = test system: HuTu80; assay: Induction of apoptosis in human HuTu80 cells assessed as early apoptotic cells at 5 uM incubated for 48 hrs by annexin V FITC/propidium iodide staining based flow cytometry analysis (reference value: 1.74%); type: functional
# [33] = test system: HuTu80; assay: Induction of apoptosis in human HuTu80 cells assessed as early apoptotic cells at 10 uM incubated for 48 hrs by annexin V FITC/propidium iodide staining based flow cytometry analysis (reference value: 1.74%); type: functional
# [34] = test system: HuTu80; assay: Induction of apoptosis in human HuTu80 cells assessed as late apoptotic cells at 5 uM incubated for 48 hrs by annexin V FITC/propidium iodide staining based flow cytometry analysis (reference value: 0.00%); type: functional
# [35] = test system: HuTu80; assay: Induction of apoptosis in human HuTu80 cells assessed as late apoptotic cells at 10 uM incubated for 48 hrs by annexin V FITC/propidium iodide staining based flow cytometry analysis (reference value: 0.00%); type: functional
# [36] = test system: HuTu80; assay: Induction of apoptosis in human HuTu80 cells assessed as necrotic cells at 5 uM incubated for 48 hrs by annexin V FITC/propidium iodide staining based flow cytometry analysis (reference value: 4.56%); type: functional
# [37] = test system: HuTu80; assay: Induction of apoptosis in human HuTu80 cells assessed as necrotic cells at 10 uM incubated for 48 hrs by annexin V FITC/propidium iodide staining based flow cytometry analysis (reference value: 4.56%); type: functional
# [38] = test system: HuTu80; assay: Induction of cell cycle arrest in human HuTu80 cells assessed as accumulation of cell at G1/G0 phase at 5 uM measured after 48 hrs by propidium iodide staining based analysis (reference value: 72%); type: functional
# [39] = test system: HuTu80; assay: Induction of cell cycle arrest in human HuTu80 cells assessed as accumulation of cell at G1/G0 phase at 10 uM measured after 48 hrs by propidium iodide staining based analysis (reference value: 72%); type: functional
# [40] = test system: HuTu80; assay: Induction of cell cycle arrest in human HuTu80 cells assessed as accumulation of cell at G2/M phase at 5 uM measured after 48 hrs by propidium iodide staining based analysis (reference value: 18.7%); type: functional
# [41] = test system: HuTu80; assay: Induction of cell cycle arrest in human HuTu80 cells assessed as accumulation of cell at G2/M phase at 10 uM measured after 48 hrs by propidium iodide staining based analysis (reference value: 18.7%); type: functional
# [42] = test system: HuTu80; assay: Induction of cell cycle arrest in human HuTu80 cells assessed as accumulation of cell at S phase at 5 uM measured after 48 hrs by propidium iodide staining based analysis (reference value: 8.1%); type: functional
# [43] = test system: HuTu80; assay: Induction of cell cycle arrest in human HuTu80 cells assessed as accumulation of cell at S phase at 10 uM measured after 48 hrs by propidium iodide staining based analysis (reference value: 8.1%); type: functional
# [44] = test system: HuTu80; assay: Induction of ROS production in human HuTu80 cells assessed as increase in fluorescence intensity at 5 uM measured after 48 hrs by flow cytometry based analysis (reference value: 380); type: functional
# [45] = test system: HuTu80; assay: Induction of ROS production in human HuTu80 cells assessed as increase in fluorescence intensity at 10 uM measured after 48 hrs by flow cytometry based analysis (reference value: 380); type: functional
# [46] = test system: HuTu80; assay: Induction of mitochondrial membrane potential loss in human HuTu80 cells assessed as J-monomer green fluorescence intensity at 5 uM incubated for 24 hrs by JC10 staining based flow cytometry method (reference value: 5.7%); type: functional
# [47] = test system: HuTu80; assay: Induction of mitochondrial membrane potential loss in human HuTu80 cells assessed as J-monomer green fluorescence intensity at 10 uM incubated for 24 hrs by JC10 staining based flow cytometry method (reference value: 5.7%); type: functional
# [48] = test system: HuTu80; assay: Induction of mitochondrial membrane potential loss in human HuTu80 cells assessed as J-aggregates red fluorescence intensity at 5 uM incubated for 24 hrs by JC10 staining based flow cytometry method (reference value: 94.4%); type: functional
# [49] = test system: HuTu80; assay: Induction of mitochondrial membrane potential loss in human HuTu80 cells assessed as J-aggregates red fluorescence intensity at 10 uM incubated for 24 hrs by JC10 staining based flow cytometry method (reference value: 94.4%); type: functional
smiles,measurement,setting,value
O=c1[nH]cc(F)c(=O)[nH]1 [FLUOROURACIL],IC50,[1],62 µM
same,IC50,[2],65.2 µM
same,IC50,[3],100 µM
same,IC50,[4],32.4 µM
same,IC50,[5],10.3 µM
same,IC50,[6],47.2 µM
same,IC50 at 48 h,[7],62 µM
same,IC50 at 48 h,[8],19 µM
COc1cccc2c1C(=O)c1c(O)c3c(c(O)c1C2=O)C[C@@](O)(C(=O)CO)C[C@@H]3O[C@H]1C[C@H](N)[C@H](O)[C@H](C)O1 [DOXORUBICIN],IC50,[1],2.1 µM
same,IC50,[9],0.4 µM
same,IC50,[2],0.2 µM
same,IC50,[3],2.2 µM
same,IC50,[4],0.7 µM
same,IC50,[10],1 µM
same,IC50,[11],0.2 µM
same,IC50,[6],6.7 µM
same,IC50,[12],0.3 µM
same,IC50 at 48 h,[7],0.4 µM
same,IC50 at 48 h,[8],0.5 µM
CCCCC/C=C\C/C=C\CCCCCCCC(=O)OC(COC(=O)CCCCCCC/C=C\CCCCCCCC)COC(=O)CCCC[P+](c1ccccc1)(c1ccccc1)c1ccccc1 (stereo not given),Ratio IC50,[13],1.9
same,IC50,[1],32.1 µM
same,IC50,[9],25.4 µM
same,IC50,[2],3.7 µM
same,IC50,[3],33.5 µM
same,IC50,[4],54.4 µM
same,IC50,[5],27.8 µM
same,IC50,[10],73.8 µM
same,IC50,[11],58.2 µM
same,IC50,[6],21 µM
same,IC50,[12],19.2 µM
same,IC50 at 48 h,[7],40 µM
same,IC50 at 48 h,[8],36 µM
same,Ratio IC50,[14],1.2
same,selectivity ratio,[15],1.6
same,Ratio IC50,[16],10.8
same,Ratio IC50,[17],1.2
same,selectivity ratio,[18],1.4
same,Ratio IC50,[19],1.9
same,MIC,[20],7.5 µM
same,MIC,[21],7.5 µM
same,MIC,[22],30 µM
same,MBC,[23],7.5 µM
same,MBC,[24],30 µM
same,MBC,[25],30 µM
CCn1cc(C(=O)O)c(=O)c2cc(F)c(N3CCNCC3)cc21 [NORFLOXACIN],MIC,[26],12.1 µM
same,MIC,[20],7.5 µM
same,MIC,[21],24.4 µM
same,MIC,[27],24.4 µM
same,MIC,[22],4.7 µM
same,MBC,[23],7.5 µM
same,MBC,[28],24.4 µM
same,MBC,[24],24.4 µM
same,MBC,[25],24.4 µM
same,MBC,[29],49 µM
CCCCCCCC/C=C\CCCCCCCC(=O)OCC(O)COC(=O)CCCC[P+](c1ccccc1)(c1ccccc1)c1ccccc1.[Br-] (stereo not given),IC50,[1],60.2 µM
same,IC50,[9],52.1 µM
same,IC50,[2],10 µM
same,IC50,[3],62.5 µM
same,IC50,[4],71.3 µM
same,IC50,[5],51 µM
same,IC50,[10],62.5 µM
same,IC50,[11],100 µM
same,IC50,[6],52 µM
same,IC50,[12],41 µM
same,IC50 at 48 h,[7],53.1 µM
same,IC50 at 48 h,[8],34 µM
same,Ratio IC50,[16],5.1
same,viability at 5 µM,[30],63.7%
same,viability at 10 µM,[31],37.6%
same,Activity,[32],3.35%
same,Activity,[33],4.78%
same,Activity,[34],15.18%
same,Activity,[35],33.13%
same,Activity,[36],17.73%
same,Activity,[37],24.48%
same,Activity,[38],84%
same,Activity,[39],87%
same,Activity,[40],3%
same,Activity,[41],1.1%
same,Activity,[42],2.1%
same,Activity,[43],1.2%
same,Flu intensity,[44],700
same,Flu intensity,[45],1500
same,Activity,[46],49%
same,Activity,[47],67.5%
same,Activity,[48],51.1%
same,Activity,[49],30.1%
same,MIC,[20],31.3 µM
same,MIC,[21],7.8 µM
same,MIC,[27],7.8 µM
same,MIC,[22],125 µM
same,MBC,[23],500 µM
same,MBC,[28],500 µM
same,MBC,[24],125 µM
same,MBC,[25],125 µM
